Experimental findings from PMC5335563, “Proline dehydrogenase from Thermus thermophilus does not discriminate between FAD and FMN as cofactor” (Scientific Reports, 2017) are described below.

Assay [1] addresses T1, MBP-TtProDH EE (apo-EE, reconstituted apo-EE) (Thermus thermophilus, UniProt Q72IB8, F10E/L12E, form not given).
T1 construct: gene TT_C1214; N-terminal MBP fusion kept; variant EE (F10E/L12E); E. coli BSV11 riboflavin auxotroph, apo form
Put plainly: flavin fluorescence quenching titration. Type of assay: binding. To be noted: 50 mM sodium phosphate, pH 7.4.

Assay [2] has as its target T1, MBP-TtProDH EE (apo-EE, reconstituted apo-EE). Put plainly: flavin fluorescence quenching titration. To be noted: very weak binding, data not shown; 200 nM riboflavin; 50 mM sodium phosphate, pH 7.4.

T1 sequence (Q72IB8 whole entry F10E/L12E, form open, the tested form may be a part): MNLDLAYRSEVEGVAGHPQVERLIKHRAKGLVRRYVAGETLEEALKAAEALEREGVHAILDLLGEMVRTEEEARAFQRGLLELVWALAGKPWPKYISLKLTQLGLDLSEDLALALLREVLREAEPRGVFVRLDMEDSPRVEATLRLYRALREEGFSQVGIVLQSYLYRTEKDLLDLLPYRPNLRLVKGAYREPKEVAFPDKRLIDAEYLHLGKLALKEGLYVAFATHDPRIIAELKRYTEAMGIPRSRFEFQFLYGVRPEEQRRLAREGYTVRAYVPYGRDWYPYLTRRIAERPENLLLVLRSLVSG

Molecule `Cc1cc2nc3c(=O)[nH]c(=O)nc-3n(C[C@H](O)[C@H](O)[C@H](O)COP(=O)(O)O)c2cc1C` [FMN] returned a Kd in assay [1] (apoenzyme titrated into 200 nM FMN) of 19.5 ± 0.8 nM.
For the molecule `Cc1cc2nc3c(=O)[nH]c(=O)nc-3n(C[C@H](O)[C@H](O)[C@H](O)COP(=O)(O)OP(=O)(O)OC[C@H]3O[C@@H](n4cnc5c(N)ncnc54)[C@H](O)[C@@H]3O)c2cc1C` [FAD], in assay [1] (apoenzyme titrated into 200 nM FAD), the affinity, expressed as Kd, was 18 ± 0.5 nM.
Take `Cc1cc2nc3c(=O)[nH]c(=O)nc-3n(C[C@H](O)[C@H](O)[C@H](O)CO)c2cc1C` [riboflavin]: the “flavin fluorescence quenching titration” value in assay [2] is listed as “riboflavin shows a very weak binding to the apoenzyme (data not shown)”.

By Kd is commonly meant a measure of binding affinity in units of concentration. A lower Kd goes with a tighter complex.
